Experimental data reported in patent US12458630B2, “Combination therapy for cancer” (The Regents of the University of California, priority 2020, dated 2025).
“Also recorded” adds a separate entry of the source.

What was measured:
MIA PaCa-2 cells = experiment: TMR-DEX macropinosome uptake assay; format: cell-based, human
Experimental: Cell imaging. Immunostaining was performed as described^44. Cells were cultured on coverslips and fixed in 4% PFA for 10 min at room temperature. After washing twice in PBS, cells were incubated in PBS containing 10% FBS to block nonspecific sites of antibody adsorption. The cells were then incubated with the appropriate primary antibodies (diluted 1:100) and secondary antibodies (diluted 1:500) in PBS containing 10% FBS with or without 0.1% saponin. For cell macropinosome visualization, 24 hrs after seeding, the cells were serum starved for 18 hrs. Macropinosomes were marked using a high-molecular-mass (70 KD) TMR-Dextran (Invitrogen)-uptake assay, wherein TMR-DEX was added to serum-free medium at a final concentration of 1 mg/ml for 30 min at 37° C. At the end of the incubation period, the cells were rinsed five times in cold PBS and immediately fixed in 4% PFA. For tissue macropinosome visualization^45, fresh pancreata were cut into pieces with an approximate 5-mm cuboidal shape. A tissue section was placed in a 24-well plate and injected 150 μL of 10 mg/ml TMR-DEX solution directly into the tissue piece. Another 250 μL of diluted TMR-DEX solution were added to the well to immerse the tissue section. The plate was incubated in the dark for 15 min at room temperature. Then the tissue section was rinsed twice in PBS before embedding in O.C.T. compound in a prelabeled cryomold. Specimens were frozen on dry ice and stored at −80° C. for further processing. Immunostaining was performed as described above. Images were captured using a TCS SPE Leica confocal microscope (Leica, Germany).
In some embodiments, Immunostaining was performed as described (Su et al., 2017). Cells were cultured on coverslips and fixed in 4% PFA for 10 min at room temperature or methanol for 10 min at −20° C. After washing twice in PBS, cells were incubated in PBS containing 10% FBS to block nonspecific sites of antibody adsorption. The cells were then incubated with the appropriate primary antibodies (diluted 1:100) and secondary antibodies (diluted 1:500) in PBS containing 10% FBS with or without 0.1% saponin. For cell macropinosome visualization, 24 hrs after seeding, the cells were serum starved for 18 hrs. Macropinosomes were marked using a high-molecular-mass (70 KDa) TMR-DEX (Invitrogen)-uptake assay, wherein TMR-DEX was added to serum-free medium at a final concentration of 1 mg/ml for 30 min at 37° C. At the end of the incubation period, the cells were rinsed five times in cold PBS and immediately fixed in 4% PFA. For tissue macropinosome visualization (Lee et al., 2019), fresh pancreata were cut into pieces with an approximate 5-mm cuboidal shape. Tissue fragments were placed in a 24-well plate and injected with 150 μL of 10 mg/ml TMR-DEX solution. Another 250 μL of diluted TMR-DEX solution were added to the well to immerse the tissue fragment. The plate was incubated in the dark for 15 min at room temperature. Then the tissue fragments were rinsed twice in PBS before embedding in O.C.T. compound in a prelabeled cryomold. Specimens were frozen on dry ice and stored at −80° C. for further processing. Immunostaining was performed as described above. Images were captured using a TCS SPE Leica confocal microscope (Leica, Germany).
Quantification and statistics. To quantify the number of LC3 puncta, a total of 30 cells were recorded and analyzed using the LAS X measurement program on the TCS SPE Leica. Macropinosomes were quantified by using the ‘Analyze Particles’ feature in ImageJ (National Institutes of Health). Macropinocytic uptake index was computed by determining the total macropinosome area in relation to the total cell area for each field and then by determining the average across all the fields (at least 6 fields). These measurements were done on randomly-selected fields of view. Two-tailed unpaired Student's t test was performed for statistical analysis using GraphPad Prism software. […]

KC6141 tumors = experiment: s.c. tumors in C57BL/6 mice; format: in vivo, mouse; conditions: EIPA 7.5 mg/kg, MRT68921 10 mg/kg, 21 days (3 weeks)
Experimental: To evaluate the effects of MP on tumor growth in the autochthonous model, Kras^G12D;Ikkα^Δpan mice, at 4 weeks of age, were treated with vehicle or 10 mg/kg EIPA (Sigma) by intraperitoneal injection every other day for 1 month. After that, surgically removed pancreata were weighed and used for further analysis. To evaluate the effects of MP on heterotopic xenografts, female homozygous BALB/c Nu/Nu nude mice were injected subcutaneously (s.c.) in both flanks at 7 weeks of age with 10^6 parental and IKKα KO MIA PaCa-2 cells mixed at a 1:1 dilution with BD Matrigel (BD Biosciences) in a total volume of 100 μl. Mice were treated with EIPA (7.5 mg/kg) for 15 days when tumors attained an average volume of 50-100 mm^3. As a control, animals treated with vehicle (DMSO in PBS) were used. Volumes (1/2×(width^2×length)) of s.c. tumors were calculated on the basis of measurements using digital calipers after 15 days of treatment. […] Tumor volumes were calculated as above.
In some embodiments, to evaluate the effects of MP on tumor growth or survival in the autochthonous model, Kras^G12D;Ikkα^ΔPEC mice, at 4 weeks of age, were treated with vehicle or 10 mg/kg EIPA (Sigma) by i.p. injection every other day for 1 month. […] Volumes (1/2×(width^2×length)) of s.c. tumors were calculated on the basis of measurements using digital calipers after 15 days of treatment. […] Tumor volumes were calculated as above.

Compound | macropinosome formation (TMR-DEX labeling) (MIA PaCa-2 cells; parental and IKKα-KO (IKKα^Δ) MIA PaCa-2 cells, 75 μM EIPA) | tumor growth (KC6141 tumors) | relative macropinocytic uptake (macropinosomes) (MIA PaCa-2 cells; MIA PaCa-2 cells +/- MRT68921)
CCN(c1nc(N)c(C(=O)N=C(N)N)nc1Cl)C(C)C [EIPA, 5-(N-ethyl-N-isopropyl) amiloride] | blocks macropinosome formation; also recorded: inhibited; also recorded: suppressed | small effect | –
CN1CCc2cc(Nc3ncc(C4CC4)c(NCCCNC(=O)C4CCC4)n3)ccc2C1 [MRT68921] | – | small effect | more macropinosomes; also recorded: increased macropinosomes; also recorded: enhanced
